{"source": "patent US8889878B2", "about": "“Haloalky-substituted amides as insecticides and acaricides” (Bayer CropScience AG, priority 2009, dated 2014)", "key": {"[1]": {"test": "logP by HPLC on reverse-phase column (EEC Directive 79/831 Annex V.A8)", "format": "physicochemical", "conditions": "for chromatographic logP: reverse-phase C18 HPLC column, pH 2.7, HPLC", "description": "The logP values reported in the above Tables and Preparation Examples were determined according to EEC Directive 79/831 Annex V.A8 by HPLC (High Performance Liquid Chromatography) on a reverse-phase column (C18). Temperature 43° C."}, "Musca domestica adults": {"test_system": "Musca domestica adults", "test": "Musca domestica test (MUSCDO), Example 14", "format": "in vivo", "conditions": "application rate 100 ppm, treated sponge, after 2 days", "description": "Musca domestica Test (MUSCDO) • Solvent: dimethyl sulphoxide To prepare an appropriate active ingredient formulation, 10 mg of active ingredient are mixed with 0.5 ml of dimethyl sulphoxide, and the concentrate is diluted with water to the desired concentration. Vessels containing a sponge which has been treated with the active ingredient formulation of the desired concentration are populated with Musca domestica adults. After 2 days, the kill rate in % is determined. 100% means that all flies were killed; 0% means that no flies were killed."}, "Boophilus microplus": {"test_system": "Boophilus microplus", "test": "Boophilus microplus test (BOOPMI injection), Example 11", "format": "in vivo", "conditions": "application rate 20 μg/animal, injected into abdomen, after 7 days", "in_short": "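Efficacy rated from fertile egg laying: 100% means none of the ticks laid fertile eggs, read after 7 days. Compound, dissolved and diluted in DMSO, was delivered by abdominal injection, and ticks were kept in dishes under climate control.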"}, "[2]": {"test_system": "mustard beetle (Phaedon cochleariae)", "test": "Phaedon test (PHAECO spray treatment), Example 16", "format": "in vivo", "conditions": "china cabbage leaf discs sprayed, after the desired time; for pest or weed control at 500 g/ha / pest or weed control at 100 g/ha: Phaedon cochleariae, foliar, read-out: efficacy in %; for pest or weed control at 500 g/ha / efficacy in %: application rate 500 g/ha; for pest or weed control at 100 g/ha: application rate 100 g/ha", "description": "Phaedon Test (PHAECO Spray Treatment)\n• Solvent: 78.0 parts by weight of acetone • 1.5 parts by weight of dimethylformamide • Emulsifier: 0.5 part by weight of alkylaryl polyglycol ether\nTo prepare an appropriate active ingredient formulation, 1 part by weight of active ingredient is mixed with the stated amounts of solvent and emulsifier, and the concentrate is diluted with emulsifier-containing water to the desired concentration. […]\nAfter the desired time, the efficacy in % is determined. 100% means that all beetle larvae were killed; 0% means that no beetle larvae were killed."}, "[3]": {"test_system": "armyworm (Spodoptera frugiperda)", "test": "Spodoptera frugiperda test (SPODFR spray treatment), Example 15", "format": "in vivo", "conditions": "Spodoptera frugiperda, foliar, 168 h; application rate 500 g/ha, maize leaf discs sprayed, after 7 days; read-out: efficacy in %", "in_short": "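Caterpillars placed on dried, sprayed Zea mays leaf discs; formulation of acetone, dimethylformamide and emulsifier diluted with emulsifier-containing water to test concentration. Percent kill scored on day 7.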"}, "[4]": {"test_system": "green peach aphid (Myzus persicae)", "test": "Myzus test (MYZUPE spray treatment), Example 17", "format": "in vivo", "conditions": "application rate 100 g/ha, china cabbage leaf discs sprayed, after 6 days", "description": "Myzus Test (MYZUPE Spray Treatment)\n• Solvent: 78 parts by weight of acetone • 1.5 parts by weight of dimethylformamide • Emulsifier: 0.5 part by weight of alkylaryl polyglycol ether\nTo prepare an appropriate active ingredient formulation, 1 part by weight of active ingredient is mixed with the stated amounts of solvent and emulsifier, and the concentrate is diluted with emulsifier-containing water to the desired concentration. Leaf discs from china cabbage (Brassica pekinensis) infested by all stages of the green peach aphid (Myzus persicae) are sprayed with an active ingredient formulation of the desired concentration.\nAfter 6 days, the efficacy in % is determined. 100% means that all aphids were killed; 0% means that no aphids were killed."}, "[5]": {"conditions": "C18 reverse phase, 43° C., acidic range pH 2.7, calibration with alkan-2-ones"}, "[6]": {"conditions": "HPLC, C18 reverse phase, 43° C., acidic range pH 2.7, calibration with alkan-2-ones"}}}
{"smiles": "O=C(/C=C/c1ccc(C(=O)Nc2ccc(Cl)cn2)c(C(F)(F)F)c1)NC(c1cccc(C(F)(F)F)c1)C(F)(F)F", "note": "(stereo not drawn) [Ia-122]", "values": [{"measurement": "logP", "setting": "[1]; HPLC-MS", "value": "HPLC-MS: logP = 4.3; mass"}, {"measurement": "kill rate in % (efficacy)", "setting": "Musca domestica adults", "value": 90, "unit": "%"}, {"measurement": "efficacy in % (fertile eggs laid)", "setting": "Boophilus microplus", "value": 100, "unit": "%"}]}
{"smiles": "O=C(/C=C/c1ccc(-c2noc(C3CC3)n2)c(C(F)(F)F)c1)NC(c1cccc(C(F)(F)F)c1)C(F)(F)F", "note": "(stereo not drawn) [Ia-123, (2E)-3-[4-(5-Cyclopropyl-1,2,4-oxadiazol-3-yl)-3-(trifluoromethyl)phenyl]-N-{2,2,2-trifluoro-1-[3-(trifluoromethyl)phenyl]ethyl}acrylamide]", "values": [{"measurement": "pest or weed control at 500 g/ha", "setting": "[2]", "value": 100, "unit": "%"}, {"measurement": "chromatographic logP", "setting": "[1]; [5]", "value": 4.53}, {"measurement": "pest or weed control at 500 g/ha", "setting": "[3]", "value": 100, "unit": "%"}, {"measurement": "pest or weed control at 0.02 mg", "setting": "Boophilus microplus; Rhipicephalus microplus, 168 h, read-out: efficacy in % (fertile eggs laid)", "value": 100, "unit": "%"}]}
{"smiles": "C#CCNC(=O)c1ccc(/C=C/C(=O)NC(c2cccc(C(F)(F)F)c2)C(F)(F)F)cc1Cl", "note": "(stereo not drawn) [Ia-151]", "values": [{"measurement": "logP", "setting": "[1]; HPLC-MS", "value": "HPLC-MS: logP = 3.2; mass"}, {"measurement": "kill rate in % (efficacy)", "setting": "Musca domestica adults", "value": 80, "unit": "%"}, {"measurement": "efficacy in % (fertile eggs laid)", "setting": "Boophilus microplus", "value": 100, "unit": "%"}]}
{"smiles": "O=C(/C=C/c1ccc(C(=O)NC2CS(=O)(=O)C2)c(Cl)c1)NC(c1cccc(C(F)(F)F)c1)C(F)(F)F", "note": "(stereo not drawn) [Ia-166, 2-Chloro-N-(1,1-dioxidothietan-3-yl)-4-[(1E)-3-oxo-3-({2,2,2-trifluoro-1-[3-(trifluoromethyl)phenyl]ethyl}amino)prop-1-en-1-yl]benzamide]", "values": [{"measurement": "pest or weed control at 100 g/ha", "setting": "[2]", "value": 100, "unit": "%"}, {"measurement": "chromatographic logP", "setting": "[1]; [5]", "value": 2.93}]}
{"smiles": "O=C(/C=C/c1ccc(C(=O)NC2C[S+]([O-])C2)c(Cl)c1)NC(c1cccc(C(F)(F)F)c1)C(F)(F)F", "note": "(stereo not drawn) [Ia-167, 2-chloro-N-(1-oxidothietan-3-yl)-4-[(1E)-3-oxo-3-({2,2,2-trifluoro-1-[3-(trifluoromethyl)phenyl]ethyl}amino)prop-1-en-1-yl]benzamide]", "values": [{"measurement": "pest or weed control at 100 g/ha", "setting": "[2]", "value": 100, "unit": "%"}, {"measurement": "chromatographic logP", "setting": "[1]; [5]", "value": 2.63}, {"measurement": "efficacy in %", "setting": "[4]", "value": 80, "unit": "%"}]}
{"smiles": "O=C(/C=C/c1ccc(C(=O)NC2CC2)c(C(F)(F)F)c1)NC(c1cncc(C(F)(F)F)c1)C(F)(F)F", "note": "(stereo not drawn) [Ib-3]", "values": [{"measurement": "efficacy in %", "setting": "[2]", "value": 83, "unit": "%"}, {"measurement": "logP", "setting": "[1]; [6]", "value": "HPLC-MS: logP = 2.83; mass (m/z):"}]}
{"smiles": "N#Cc1ccc2oc(C(=O)NC(c3cccc(C(F)(F)F)c3)C(F)(F)F)cc2c1", "note": "(stereo not drawn) [Ic-1, 5-Cyano-N-{2,2,2-trifluoro-1-[3-(trifluoromethyl)phenyl]ethyl}-1-benzofuran-2-carboxamide]", "values": [{"measurement": "pest or weed control at 500 g/ha", "setting": "[2]", "value": 100, "unit": "%"}, {"measurement": "chromatographic logP", "setting": "[1]; [5]", "value": 3.63}, {"measurement": "pest or weed control at 500 g/ha", "setting": "[3]", "value": 100, "unit": "%"}]}
{"smiles": "O=C(NC(c1cccc(C(F)(F)F)c1)C(F)(F)F)c1cc2cc(SC(F)(F)F)ccc2o1", "note": "(stereo not drawn) [Ic-2]", "values": [{"measurement": "efficacy in %", "setting": "[2]", "value": 83, "unit": "%"}, {"measurement": "logP", "setting": "[1]; [6]", "value": "HPLC-MS: logP = 4.94; mass"}]}
{"smiles": "CC(=O)NCc1ccc2oc(C(=O)NC(c3cccc(C(F)(F)F)c3)C(F)(F)F)cc2c1", "note": "(stereo not drawn) [Ic-10, 5-(Acetamidomethyl)-N-{2,2,2-trifluoro-1-[3-(trifluoromethyl)phenyl]ethyl}-1-benzofuran-2-carboxamide]", "values": [{"measurement": "pest or weed control at 500 g/ha", "setting": "[2]", "value": 100, "unit": "%"}, {"measurement": "chromatographic logP", "setting": "[1]; [5]", "value": 2.8}]}
{"smiles": "N#Cc1ccc2[nH]c(C(=O)NC(c3cc(Cl)cc(C(F)(F)F)c3)C(F)(F)F)cc2c1", "note": "(stereo not drawn) [Ic-11]", "values": [{"measurement": "efficacy in %", "setting": "[2]", "value": 83, "unit": "%"}, {"measurement": "logP", "setting": "[1]; [6]", "value": "HPLC-MS: logP = 3.90; mass"}]}
{"smiles": "O=C(NC1CC1)c1ccc2cc(C(=O)NC(c3cccc(C(F)(F)F)c3)C(F)(F)F)oc2c1", "note": "(stereo not drawn) [Ic-19, N^6-Cyclopropyl-N^2-{2,2,2-trifluoro-1-[3-(trifluoromethyl)phenyl]ethyl}-1-benzofuran-2,6-dicarboxamide]", "values": [{"measurement": "pest or weed control at 500 g/ha", "setting": "[2]", "value": 100, "unit": "%"}, {"measurement": "chromatographic logP", "setting": "[1]; [5]", "value": 3.25}]}
{"smiles": "CC(F)(F)C(NC(=O)/C=C/c1ccc(C(=O)NC2CC2)c(Cl)c1)c1cccc(C(F)(F)F)c1", "note": "(stereo not drawn) [Id-1, 2-Chloro-N-cyclopropyl-4-[(1E)-3-({2,2-difluoro-1-[3-(trifluoromethyl)phenyl]propyl}amino)-3-oxoprop-1-en-1-yl]benzamide]", "values": [{"measurement": "pest or weed control at 500 g/ha", "setting": "[2]", "value": 100, "unit": "%"}, {"measurement": "chromatographic logP", "setting": "[1]; [5]", "value": 3.04}]}
